From patent US8058258B2, “Methods for cancer therapy and stem cell modulation” (Agency for Science, Technology and Research, priority 2006, dated 2011)

Legend:
histone acetylation = experiment: Western blot of histone acetylation; type: cell-based, human; conditions: HCT116 or MCF-7 cells, 5 μM, 48 and 72 hours
Procedure: (§1) Cell lines used in these examples were purchased from the American Type Culture Collection (Manassas, Va.). Cells were maintained in DMEM supplemented with 10% fetal bovine serum with glutamine, penicillin, and streptomycin. For drug treatment, cells were seeded the day before the drug treatment. Cells were treated with 5 μM 3-Deazaneplanocin A or 2 μM 5-aza-2'-deoxycytidine (5-AzaC; Sigma) for 72 hours and trichostatin A (TSA; Sigma) at 100 nM for 24 hours. For co-treatment of cells with 5-AzaC and TSA, 5-Aza was added for 48 hours and followed by TSA for 24 hours. Cell pellets were first lysed in RadioImmuno Precipitation Assay (RIPA) buffer, consisting of an aqueous solution of 25 mM Tris-HCl pH 7.6, 150 mM NaCl, 1% Nonidet-P 40 (NP-40), 1% sodium deoxycholate and 0.1% sodium dodecylsulfate (SDS), before further sonicated using a tissue homogeniser to release all the proteins. Equal amounts of protein were separated on SDS-polyacrylamide gels and transferred to polyvinylidene difluoride (PVDF) membranes. The blots were probed with antibodies against: EED (07-368), SUZ12 (07-379), SUV39H1 (07-550), BMI1 (05-637), tri-methylated H3-K27 (07-449), tri-methylated H3-K9 (07-442) and Acetyl-Histone H3 (06-599), and were purchased from Upstate. EZH2 (AC22) and Histone H3 (3H1) were from Cell Signaling. […]

CC33D cells = experiment: Microscopy examination of cell death in primary colon epithelial cells; type: cell-based; conditions: normal primary colon epithelial CC33D cells compared to HCT116
From the text: To determine whether 3-deazaneplanocin preferentially induces apoptosis in cancer cells, the apoptosis induction between MCF-7 cells and the non-cancerous breast epithelial MCF10A cells was compared for various periods of time. […] In addition, normal primary colon epithelial CC33D cells, like MCF10A cells, were also resistant to 3-deazaneplanocin treatment compared to colorectal cancer HCT116 cell, as evaluated by microscopy examination (FIGS. 3G & 3H).

[1] = test system: PRC2 components SUZ12, EZH2 and EED; experiment: Western blot of PRC2 protein levels after drug treatment; type: cell-based, human; conditions: HCT116 or MCF-7 cells, 5 μM, 48 and 72 hours
Procedure: as §1

[2] = test system: SUZ12 binding to PRC2 target gene promoters; experiment: ChIP of SUZ12 binding to PRC2 target gene promoters; type: cell-based, human; conditions: MCF-7 cells, 5 μM, 48 hours
Procedure: ChIP assays were performed as described previously. […] MCF-7 cell were seeded into 6-well plates at 30% confluence and treated with or without 3-deazaneplanocin (5 μM) for 48 hours. Cells were washed once in 1× phosphate-buffered saline (PBS) and then treated with 1% formaldehyde in PBS at 37° C. for […] followed by the addition of glycine to a final concentration of 0.125 M for 5 mM. Cells were then scraped on ice and centrifuged at 1500 rpm for 5 mM at 4° C. After washing with PBS cell pellets were resuspended in 1 mL of cold lysis buffer (10 mM HEPES at pH 7.5, 1 mM EDTA at pH 8.0, 400 mM NaCl, 10% glycerol, 0.5% NP-40, 0.5 mM phenylmethylsulfonyl fluoride, and protease inhibitors [1 mM benzamidine, 3 mg/mL leupeptin, 0.1 mg/mL bacitracin, 1 mg/mL macroglobulin]) followed by centrifugation at 11,500 rpm in a microfuge for 5 min at 4° C. to remove protein not cross-linked to chromatin. The resulting pellets were then resuspended again in 1 mL of cold lysis buffer and sonicated with a Heat Systems-Ultrasonics, Inc. W-220 sonicator at 20% output for a total of 2 mM (pulsed: 30 sec on/30 sec off). The resulting solution was cleared by centrifugation at maximum speed in a microfuge for 10 mM at 4° C. At this point 5% of the solution was taken and stored at −20° C. for the input chromatin sample. […]

DNMT1 or DNMT3B = experiment: Western blot of DNMT protein expression; type: cell-based, human; conditions: HCT116 or MCF-7 cells, 5 μM, 48 and 72 hours
Procedure: as §1

## Nc1nccc2c1ncn2C1C=C(CO)C(O)C1O (centres unmarked) [3-deazaneplanocin, 5-(4-amino-1H-imidazo[4,5-c]pyridin-1-yl)-3-(hydroxymethyl)-3-cyclopentene-1,2-diol]
Histone acetylation
  histone acetylation: did not affect
CC33D cells
  sensitivity to treatment, microscopy examination: resistant
[1]
  protein levels of PRC2 components SUZ12, EZH2 and EED: dramatic decrease
[2]
  SUZ12 binding to PRC2 target gene promoters (ChIP): markedly reduced
DNMT1 or DNMT3B
  DNMT1 or DNMT3B protein expression: did not cause a change
